From the OligoGym collection come the findings set out here.

Oligonucleotides are given in HELM: sugar(base)linkage, 5' to 3'; d 2'-deoxyribose, r ribose, m 2'-O-methylribose, p phosphate. ss, as = sense and antisense strand
Also: test concentration or dose not given here.

The data set deals with CDC34. Briefly: reporter assay of Huesken 2005. As to conditions: siRNA.
Substance “RNA1{r(A)p.r(C)p.r(U)p.r(A)p.r(C)p.r(G)p.r(A)p.r(G)p.r(G)p.r(G)p.r(C)p.r(G)p.r(G)p.r(C)p.r(U)p.r(A)p.r(C)p.r(U)p.r(U)p.d(T)p.d(T)}|RNA2{r(A)p.r(A)p.r(G)p.r(U)p.r(A)p.r(G)p.r(C)p.r(C)p.r(G)p.r(C)p.r(C)p.r(C)p.r(U)p.r(C)p.r(G)p.r(U)p.r(A)p.r(G)p.r(U)p.d(A)p.d(G)}$$$RNA1{StrandType:ss}|RNA2{StrandType:as}$” registered a normalised inhibition (eCFP-eYFP dual reporter) of 73.7%.

Turning to “RNA1{r(A)p.r(G)p.r(C)p.r(A)p.r(A)p.r(G)p.r(G)p.r(G)p.r(G)p.r(A)p.r(A)p.r(G)p.r(G)p.r(A)p.r(U)p.r(C)p.r(G)p.r(G)p.r(G)p.d(T)p.d(T)}|RNA2{r(C)p.r(C)p.r(C)p.r(G)p.r(A)p.r(U)p.r(C)p.r(C)p.r(U)p.r(U)p.r(C)p.r(C)p.r(C)p.r(C)p.r(U)p.r(U)p.r(G)p.r(C)p.r(U)p.d(C)p.d(T)}$$$RNA1{StrandType:ss}|RNA2{StrandType:as}$”, the normalised inhibition (eCFP-eYFP dual reporter) amounted to 41.2%.

The substance “RNA1{r(A)p.r(G)p.r(G)p.r(A)p.r(A)p.r(G)p.r(A)p.r(G)p.r(C)p.r(C)p.r(G)p.r(G)p.r(U)p.r(C)p.r(G)p.r(A)p.r(G)p.r(G)p.r(G)p.d(T)p.d(T)}|RNA2{r(C)p.r(C)p.r(C)p.r(U)p.r(C)p.r(G)p.r(A)p.r(C)p.r(C)p.r(G)p.r(G)p.r(C)p.r(U)p.r(C)p.r(U)p.r(U)p.r(C)p.r(C)p.r(U)p.d(G)p.d(C)}$$$RNA1{StrandType:ss}|RNA2{StrandType:as}$” showed a normalised inhibition (eCFP-eYFP dual reporter) of 44.3%.

In turn, “RNA1{r(A)p.r(G)p.r(G)p.r(U)p.r(G)p.r(G)p.r(A)p.r(A)p.r(C)p.r(C)p.r(C)p.r(C)p.r(A)p.r(C)p.r(G)p.r(C)p.r(A)p.r(G)p.r(A)p.d(T)p.d(T)}|RNA2{r(U)p.r(C)p.r(U)p.r(G)p.r(C)p.r(G)p.r(U)p.r(G)p.r(G)p.r(G)p.r(G)p.r(U)p.r(U)p.r(C)p.r(C)p.r(A)p.r(C)p.r(C)p.r(U)p.d(C)p.d(T)}$$$RNA1{StrandType:ss}|RNA2{StrandType:as}$” displayed a normalised inhibition (eCFP-eYFP dual reporter) of 72.6%.

For “RNA1{r(C)p.r(A)p.r(A)p.r(G)p.r(G)p.r(C)p.r(G)p.r(C)p.r(C)p.r(G)p.r(G)p.r(C)p.r(G)p.r(C)p.r(C)p.r(C)p.r(G)p.r(A)p.r(C)p.d(T)p.d(T)}|RNA2{r(G)p.r(U)p.r(C)p.r(G)p.r(G)p.r(G)p.r(C)p.r(G)p.r(C)p.r(C)p.r(G)p.r(G)p.r(C)p.r(G)p.r(C)p.r(C)p.r(U)p.r(U)p.r(G)p.d(G)p.d(T)}$$$RNA1{StrandType:ss}|RNA2{StrandType:as}$”, the normalised inhibition (eCFP-eYFP dual reporter) is 26.8%.

Substance “RNA1{r(C)p.r(A)p.r(C)p.r(C)p.r(C)p.r(G)p.r(C)p.r(C)p.r(G)p.r(G)p.r(U)p.r(G)p.r(G)p.r(A)p.r(C)p.r(G)p.r(A)p.r(C)p.r(C)p.d(T)p.d(T)}|RNA2{r(G)p.r(G)p.r(U)p.r(C)p.r(G)p.r(U)p.r(C)p.r(C)p.r(A)p.r(C)p.r(C)p.r(G)p.r(G)p.r(C)p.r(G)p.r(G)p.r(G)p.r(U)p.r(G)p.d(G)p.d(A)}$$$RNA1{StrandType:ss}|RNA2{StrandType:as}$” yielded a normalised inhibition (eCFP-eYFP dual reporter) of 25.4%.

Substance “RNA1{r(C)p.r(A)p.r(C)p.r(U)p.r(G)p.r(G)p.r(U)p.r(G)p.r(G)p.r(A)p.r(C)p.r(G)p.r(A)p.r(G)p.r(G)p.r(G)p.r(C)p.r(G)p.r(A)p.d(T)p.d(T)}|RNA2{r(U)p.r(C)p.r(G)p.r(C)p.r(C)p.r(C)p.r(U)p.r(C)p.r(G)p.r(U)p.r(C)p.r(C)p.r(A)p.r(C)p.r(C)p.r(A)p.r(G)p.r(U)p.r(G)p.d(T)p.d(C)}$$$RNA1{StrandType:ss}|RNA2{StrandType:as}$” had a normalised inhibition (eCFP-eYFP dual reporter) of 75.5%.

Take “RNA1{r(C)p.r(A)p.r(G)p.r(G)p.r(U)p.r(C)p.r(C)p.r(U)p.r(G)p.r(G)p.r(G)p.r(G)p.r(A)p.r(C)p.r(C)p.r(A)p.r(A)p.r(G)p.r(G)p.d(T)p.d(T)}|RNA2{r(C)p.r(C)p.r(U)p.r(U)p.r(G)p.r(G)p.r(U)p.r(C)p.r(C)p.r(C)p.r(C)p.r(A)p.r(G)p.r(G)p.r(A)p.r(C)p.r(C)p.r(U)p.r(G)p.d(C)p.d(T)}$$$RNA1{StrandType:ss}|RNA2{StrandType:as}$”: the normalised inhibition (eCFP-eYFP dual reporter) was 43%.

The substance “RNA1{r(C)p.r(C)p.r(A)p.r(C)p.r(C)p.r(C)p.r(G)p.r(C)p.r(C)p.r(G)p.r(G)p.r(U)p.r(G)p.r(G)p.r(A)p.r(C)p.r(G)p.r(A)p.r(C)p.d(T)p.d(T)}|RNA2{r(G)p.r(U)p.r(C)p.r(G)p.r(U)p.r(C)p.r(C)p.r(A)p.r(C)p.r(C)p.r(G)p.r(G)p.r(C)p.r(G)p.r(G)p.r(G)p.r(U)p.r(G)p.r(G)p.d(A)p.d(G)}$$$RNA1{StrandType:ss}|RNA2{StrandType:as}$” returned a normalised inhibition (eCFP-eYFP dual reporter) of 44.2%.

The substance “RNA1{r(C)p.r(C)p.r(C)p.r(A)p.r(A)p.r(C)p.r(A)p.r(C)p.r(C)p.r(U)p.r(U)p.r(C)p.r(U)p.r(C)p.r(G)p.r(C)p.r(C)p.r(C)p.r(G)p.d(T)p.d(T)}|RNA2{r(C)p.r(G)p.r(G)p.r(G)p.r(C)p.r(G)p.r(A)p.r(G)p.r(A)p.r(A)p.r(G)p.r(G)p.r(U)p.r(G)p.r(U)p.r(U)p.r(G)p.r(G)p.r(G)p.d(C)p.d(T)}$$$RNA1{StrandType:ss}|RNA2{StrandType:as}$” displayed a normalised inhibition (eCFP-eYFP dual reporter) of 45.9%.

“RNA1{r(C)p.r(C)p.r(C)p.r(C)p.r(A)p.r(U)p.r(C)p.r(G)p.r(A)p.r(C)p.r(U)p.r(A)p.r(C)p.r(C)p.r(C)p.r(A)p.r(U)p.r(A)p.r(C)p.d(T)p.d(T)}|RNA2{r(G)p.r(U)p.r(A)p.r(U)p.r(G)p.r(G)p.r(G)p.r(U)p.r(A)p.r(G)p.r(U)p.r(C)p.r(G)p.r(A)p.r(U)p.r(G)p.r(G)p.r(G)p.r(G)p.d(A)p.d(A)}$$$RNA1{StrandType:ss}|RNA2{StrandType:as}$”: the normalised inhibition (eCFP-eYFP dual reporter) came to 44.9%.

In the case of “RNA1{r(C)p.r(C)p.r(G)p.r(A)p.r(G)p.r(U)p.r(A)p.r(C)p.r(U)p.r(G)p.r(C)p.r(G)p.r(U)p.r(G)p.r(A)p.r(A)p.r(G)p.r(A)p.r(C)p.d(T)p.d(T)}|RNA2{r(G)p.r(U)p.r(C)p.r(U)p.r(U)p.r(C)p.r(A)p.r(C)p.r(G)p.r(C)p.r(A)p.r(G)p.r(U)p.r(A)p.r(C)p.r(U)p.r(C)p.r(G)p.r(G)p.d(C)p.d(C)}$$$RNA1{StrandType:ss}|RNA2{StrandType:as}$”, the normalised inhibition (eCFP-eYFP dual reporter) stood at 59%.

“RNA1{r(C)p.r(C)p.r(U)p.r(C)p.r(C)p.r(U)p.r(G)p.r(A)p.r(A)p.r(C)p.r(G)p.r(A)p.r(G)p.r(C)p.r(C)p.r(C)p.r(A)p.r(A)p.r(C)p.d(T)p.d(T)}|RNA2{r(G)p.r(U)p.r(U)p.r(G)p.r(G)p.r(G)p.r(C)p.r(U)p.r(C)p.r(G)p.r(U)p.r(U)p.r(C)p.r(A)p.r(G)p.r(G)p.r(A)p.r(G)p.r(G)p.d(G)p.d(A)}$$$RNA1{StrandType:ss}|RNA2{StrandType:as}$” registered a normalised inhibition (eCFP-eYFP dual reporter) of 68.2%.

For “RNA1{r(C)p.r(C)p.r(U)p.r(C)p.r(U)p.r(U)p.r(C)p.r(U)p.r(A)p.r(C)p.r(G)p.r(A)p.r(C)p.r(G)p.r(A)p.r(C)p.r(U)p.r(A)p.r(C)p.d(T)p.d(T)}|RNA2{r(G)p.r(U)p.r(A)p.r(G)p.r(U)p.r(C)p.r(G)p.r(U)p.r(C)p.r(G)p.r(U)p.r(A)p.r(G)p.r(A)p.r(A)p.r(G)p.r(A)p.r(G)p.r(G)p.d(T)p.d(C)}$$$RNA1{StrandType:ss}|RNA2{StrandType:as}$”, the normalised inhibition (eCFP-eYFP dual reporter) is 82.7%.

In turn, “RNA1{r(C)p.r(C)p.r(U)p.r(G)p.r(A)p.r(G)p.r(U)p.r(G)p.r(U)p.r(G)p.r(A)p.r(U)p.r(C)p.r(U)p.r(C)p.r(C)p.r(C)p.r(U)p.r(C)p.d(T)p.d(T)}|RNA2{r(G)p.r(A)p.r(G)p.r(G)p.r(G)p.r(A)p.r(G)p.r(A)p.r(U)p.r(C)p.r(A)p.r(C)p.r(A)p.r(C)p.r(U)p.r(C)p.r(A)p.r(G)p.r(G)p.d(A)p.d(G)}$$$RNA1{StrandType:ss}|RNA2{StrandType:as}$” gave a normalised inhibition (eCFP-eYFP dual reporter) of 58.4%.

In the case of “RNA1{r(C)p.r(G)p.r(A)p.r(C)p.r(G)p.r(A)p.r(C)p.r(U)p.r(A)p.r(C)p.r(U)p.r(A)p.r(C)p.r(G)p.r(G)p.r(G)p.r(A)p.r(C)p.r(G)p.d(T)p.d(T)}|RNA2{r(C)p.r(G)p.r(U)p.r(C)p.r(C)p.r(C)p.r(G)p.r(U)p.r(A)p.r(G)p.r(U)p.r(A)p.r(G)p.r(U)p.r(C)p.r(G)p.r(U)p.r(C)p.r(G)p.d(T)p.d(A)}$$$RNA1{StrandType:ss}|RNA2{StrandType:as}$”, the normalised inhibition (eCFP-eYFP dual reporter) amounted to 62.7%.

“RNA1{r(C)p.r(G)p.r(A)p.r(G)p.r(G)p.r(G)p.r(C)p.r(G)p.r(A)p.r(U)p.r(C)p.r(U)p.r(A)p.r(U)p.r(A)p.r(C)p.r(A)p.r(A)p.r(C)p.d(T)p.d(T)}|RNA2{r(G)p.r(U)p.r(U)p.r(G)p.r(U)p.r(A)p.r(U)p.r(A)p.r(G)p.r(A)p.r(U)p.r(C)p.r(G)p.r(C)p.r(C)p.r(C)p.r(U)p.r(C)p.r(G)p.d(T)p.d(C)}$$$RNA1{StrandType:ss}|RNA2{StrandType:as}$” gave a normalised inhibition (eCFP-eYFP dual reporter) of 72.7%.

Substance “RNA1{r(C)p.r(G)p.r(C)p.r(C)p.r(U)p.r(C)p.r(C)p.r(G)p.r(U)p.r(G)p.r(A)p.r(U)p.r(G)p.r(U)p.r(A)p.r(C)p.r(A)p.r(G)p.r(G)p.d(T)p.d(T)}|RNA2{r(C)p.r(C)p.r(U)p.r(G)p.r(U)p.r(A)p.r(C)p.r(A)p.r(U)p.r(C)p.r(A)p.r(C)p.r(G)p.r(G)p.r(A)p.r(G)p.r(G)p.r(C)p.r(G)p.d(T)p.d(C)}$$$RNA1{StrandType:ss}|RNA2{StrandType:as}$” showed a normalised inhibition (eCFP-eYFP dual reporter) of 36.4%.

“RNA1{r(C)p.r(G)p.r(C)p.r(G)p.r(C)p.r(C)p.r(U)p.r(C)p.r(A)p.r(A)p.r(G)p.r(U)p.r(U)p.r(C)p.r(C)p.r(C)p.r(C)p.r(A)p.r(U)p.d(T)p.d(T)}|RNA2{r(A)p.r(U)p.r(G)p.r(G)p.r(G)p.r(G)p.r(A)p.r(A)p.r(C)p.r(U)p.r(U)p.r(G)p.r(A)p.r(G)p.r(G)p.r(C)p.r(G)p.r(C)p.r(G)p.d(C)p.d(C)}$$$RNA1{StrandType:ss}|RNA2{StrandType:as}$” registered a normalised inhibition (eCFP-eYFP dual reporter) of 51.1%.

In turn, “RNA1{r(C)p.r(G)p.r(C)p.r(G)p.r(U)p.r(G)p.r(A)p.r(C)p.r(A)p.r(C)p.r(U)p.r(G)p.r(G)p.r(U)p.r(G)p.r(G)p.r(A)p.r(C)p.r(G)p.d(T)p.d(T)}|RNA2{r(C)p.r(G)p.r(U)p.r(C)p.r(C)p.r(A)p.r(C)p.r(C)p.r(A)p.r(G)p.r(U)p.r(G)p.r(U)p.r(C)p.r(A)p.r(C)p.r(G)p.r(C)p.r(G)p.d(G)p.d(A)}$$$RNA1{StrandType:ss}|RNA2{StrandType:as}$” came in with a normalised inhibition (eCFP-eYFP dual reporter) of 67.3%.
